Laboratory results from paper PMC7801115, “Preclinical in vitro screening of newly synthesised amidino substituted benzimidazoles and benzothiazoles” (Journal of Enzyme Inhibition and Medicinal Chemistry, 2021).

Tests used:
[1] = tested on: P-glycoprotein (human MDR1); experiment: MDCKII-MDR1 permeability and P-glycoprotein substrate assay; type: in vitro ADME, canine cells over-expressing human MDR1; details: dog; for efflux ratio at 60 min, 10 µM: MDCK-MDR1, pH 7.4, without P-gp inhibitor; for Papp A→B at 60 min, 10 µM / Papp B→A at 60 min, 10 µM: MDCK-MDR1, pH 7.4, without P-gp inhibitor; for Papp A→B at 60 min, 10 µM: read-out: MDCKII-MDR1 Papp(A2B); for Papp B→A at 60 min, 10 µM: read-out: MDCKII-MDR1 Papp(B2A)
Experimental: Permeability and P-glycoprotein substrate assessment was done on MDCKII-hMDR1, Madin-Darby canine epithelial cells over-expressing human MDR1 gene, coding for P-glycoprotein.
Cells were prepared for transport studies by seeding on 96-well cell culture inserts (Millipore, MA, USA) in a concentration of 0.25 × 10^6 cells per ml. The cells were fed with fresh medium 24 h post seeding and cultured to confluence for 3 days before use. On the day of experiment, the cell monolayers were washed and equilibrated with transport medium (DPBS, pH 7.4 containing 1% DMSO) with or without P-gp specific inhibitor, elacridar (2 µM) for 45 min (37 °C, 5% CO2, 95% humidity). Test compound solution consisted of test substance (10 μM) in D-PBS medium containing lucifer yellow (100 μM) and 1% DMSO. Transport assays were conducted in apical to basolateral (A2B) and basolateral to apical (B2A) directions, respectively. Monolayers were incubated with the compound solution for 60 min at 37 °C under gentle agitation. Apical and basolateral compartments were sampled at the end of the transport experiment, while donor solutions were also sampled at the beginning of the experiment in order to determine initial concentration. Test substance concentrations in both compartments were determined by LC-MS/MS. There were several controls used in the assay: 1) amprenavir (0.5 μM) served as a low permeable control, being also a P-gp substrate; 2) diclofenac (10 μM) was used as a high permeable control; 3) Lucifer yellow, a fluorescent marker for the paracellular membrane transport, was used as a control of cell monolayer integrity.
All ADME samples were analysed on a Sciex API 4000 or Sciex API4500 Triple Quadrupole Mass Spectrometer (Sciex, Framingham, MA, USA) coupled to a UHPLC System (Shimadzu Nexera X2; Shimadzu, Kyoto, Japan). Samples were injected onto an UPLC column (HALO2 C18, 2.1 × 20 mm, 2 µm or Phenomenex Luna Omega Polar C18, 30 × 2.1 mm, 1.6 µm) and eluted with a gradient at temperature of 50 °C. The mobile phase was composed of acetonitrile (with 0.1% formic acid) and 0.1% formic acid in deionised water. A total run time was 1 or 1.5 min, with the flow rate of 0.7 ml/min (under gradient conditions). A positive ion mode with turbo spray, an ion source temperature of 500 °C and a dwell time of 150 ms were utilised for mass spectrometric detection. Multiple reaction monitoring (MRM) was used at the specific transitions for each compound/control tested: compound 5c: 361.9 → 304.9; compound 5d: 344.8 → 287.9; compound 5e: 349.8 → 292.9; compound 5 g: 350.8 → 293.9; compound 5 h: 344.0 → 286.9; compound 6a: 276.9 → 220.0; compound 5 b: 319.0 → 262.0; compound 6 b: 302.1 → 245.1; compound 6c: 344.9 → 288.0; compound 6d: 333.0 → 276.0; compound 6e: 316.1 → 259.0; compound 6f: 327.1 → 270.0; compound 6 g: 377.1 → 320.1; testosterone: 289.3→ 97.1; propranolol: 260.1 → 182.8; caffeine: 195.2 → 138.1; acebutolol: 337.2 → 116.2, nicardipine: 480.2 → 315.0; verapamil: 455.4 → 165.1; amprenavir: 506.2 → 245.4; diclofenac: 296.1 → 213.7 or 296.2 → 215.3; eucatropine: 292.2 → 109.1; benfluorex: 352.1 → 230.3, and warfarin: 309.2 → 163.2

NCI-H358 [2] = experiment: BrdU proliferation assay, 2D cell culture; type: cell-based; details: Homo sapiens, NCI-H358, 2D cell culture, ±SD, N = 2
Experimental: (§1) Cells were grown in 96 well cell star polystyrene plates. 10,000 cells/well were seeded in wells 4 h prior the treatment with different compounds concentrations and incubated for 72 h. A cell viability assay was performed according to the manufacturer’s instruction, using CellTiter 96 aqueous solution, MTS kit (Promega, Madison, WI, USA). After 0.5–2 h of cell incubation with MTS in 2 D cell culture, the plates were read using PE EnVision absorbance at 490 nm. […] Since we prefer homogeneous assays (mix and read procedures) and therefore MTS is more practical (one step less than MTT). MTS is more sensitive and accurate in comparison with MTT assay.
(§2) Proliferation assay was performed using Cell Proliferation ELISA, BrdU (Sigma, St. Louis, MO, USA). Briefly, 48 h hours after compound addition, 10 µM of BrdU was added to each well and incubated for following 24 h. After incubation, single cell suspension was made for 3 D cell culture in the new 96 well plate. Plates were centrifuged and supernatants were removed from each plate (for 2 D and 3 D cell culture) followed by 60 min incubation at 60° C. The rest of the proliferation assay was performed according to the manufacturer instructions.
(§3) Calculation of IC50 data, curves and QC analysis is made by using Excel tools and GraphPadPrism software (La Jolla, CA), v. […] QC criteria parameters (Z', S:B, R2, HillSlope) were checked for every IC50 curve.

HCC827 [3] = experiment: BrdU proliferation assay, 2D cell culture; type: cell-based; details: Homo sapiens, HCC827, 2D cell culture, ±SD, N = 2
Experimental: as §1, §2, §3

HCC827 [4] = experiment: BrdU proliferation assay, 3D cell culture; type: cell-based; details: Homo sapiens, HCC827, 3D cell culture, ±SD, N = 2
Experimental: (§4) Cells were grown in 96 well Perfecta 3 D hanging drop plates 5000 cell/well for 4 days until spheres were formed (and checked under the microscope). After sphere formation cells were treated with compounds followed by 72 h incubation. Cell viability assay was performed according to the manufacturer’s instruction, using CellTiter GLO 3 D for 3 D cell culture (Promega); cell incubation was 5 min on the shaker followed by 25 min incubation in the dark. Plates were read using PE EnVision luminescence.
as §2, §3

A549 = experiment: Cell viability assay, 3D hanging drop cell culture (CellTiter GLO 3D); type: cell-based; details: Homo sapiens; A549, 3D hanging drop cell culture, 72 h; ±SD, N = 2; read-out: IC50 antitumor activity A549 3D
Experimental: (§5) Compounds are diluted 1:3. 500 nL (for 2 D cell culture) or 400 nL (for 3 D cell culture) of compound were transferred from mother plate to test plate by using Mosquito (TTP labtech). DMSO percentage in test concentrations was 0.5 − 1.0%. Starting concentration of the test compounds and standard compound doxorubicin was 50 µM (2 D cell culture) or 100 µM (3 D cell culture).
as §4, §3

NCI-H358 [5] = experiment: as above; type: cell-based; details: Homo sapiens; NCI-H358, 3D hanging drop cell culture, 72 h; ±SD, N = 2; read-out: IC50 antitumor activity NCI-H358 3D
Experimental: as §5, §4, §3

HCC827 [6] = experiment: as above; type: cell-based; details: Homo sapiens; HCC827, 3D hanging drop cell culture, 72 h; ±SD, N = 2; read-out: IC50 antitumor activity HCC827 3D
Experimental: as §5, §4, §3

| Compound | efflux ratio at 60 min, 10 µM [1] | Papp A→B at 60 min, 10 µM [1] | Papp B→A at 60 min, 10 µM [1] | IC50 (NCI-H358 [2]) | IC50 (HCC827 [3]) | IC50 (HCC827 [4]) | IC50 (A549) | IC50 (NCI-H358 [5]) | IC50 (HCC827 [6]) |
| --- | --- | --- | --- | --- | --- | --- | --- | --- | --- |
| Cl.c1ccc2cc(-c3nc4ccc(C5=NCCCN5)cc4s3)ccc2c1 [Compound 5h, 2-(Naphthalene-2-yl)-6–(3,4,5,6-tetrahydropyrimidin-1-ium-2-yl)benzothiazole chloride] | > 77 | < 0.1 ×10⁻⁶ cm/s | 7.7 ×10⁻⁶ cm/s | 7 ± 0.07 µM | 9 ± 0.83 µM | 12 ± 0.26 µM | 14 ± 0.38 µM | 31 ± 0.33 µM | 12 ± 0.26 µM |
| FC(F)(F)c1ccc(-c2nc3cc(C4=NCCCN4)ccc3[nH]2)cc1 [Compound 6c, 2–(4-Trifluoromethylphenyl)-5(6)–(3,4,5,6-tetrahydropyrimidin-1-ium-2-yl)benzimidazole chloride] | 2.82 | 0.69 ×10⁻⁶ cm/s | 1.93 ×10⁻⁶ cm/s | > 50 µM | > 50 µM | > 100 µM | > 100 µM | > 100 µM | > 100 µM |
